Results on 22 molecules are retold here after patent publication US20260306502A1, “MITOCHONDRIAL UNCOUPLERS FOR TREATMENT OF METABOLIC DISEASES AND CANCER” (Mito Biopharma, LLC, priority 2022, published 2026).

This test relates to C2C12 cells. As to the kind of experiment: Mitochondrial uncoupling activity by oxygen consumption rate (OCR) assay, Seahorse, in presence of oligomycin. Conditions: for minimal effective concentration: Mus musculus, C2C12. The test is classed as cell-based, mouse. The procedure: By definition, mitochondrial uncoupling is the decoupling of mitochondrial electron transport chain activity (mitochondrial oxidation) from ATP synthesis by mitochondrial ATP synthase. Technically, mitochondrial uncoupling activity is defined by the ability of a chemical compound to induce oxygen consumption of cells or isolated mitochondria in the presence of a mitochondrial ATP synthase inhibitor such as oligomycin. Accordingly, mitochondrial uncoupling activity was determined by oxygen consumption rate assay with a Seahorse XF96 or a Seahorse XF24 instrument following the vendor's instruction, using mouse myoblast C2C12 cells grown in a medium containing 10% fetal bovine serum. OCR was measured stepwise under the following conditions: first under normal growth conditions; then. OCR was measured after oligomycin was added to reach a final concentration of 2.5 μM); then OCR was measured after the compound was further added at varying concentrations. Finally, rotenone and antimycin A were added to confirm that the measurement was mitochondrial oxygen consumption (rotenone and […] mitochondrial electron transport chain inhibitors).
COCR-min the minimal concentration required for each compound to induce OCR in the presence of oligomycin, of disclosed compounds, was also determined by varying the final concentration of the compound added to the Seahorse OCR analysis experiment as described above (FIG. 2, varying testing compound concentration). Table 8 summarizes the mitochondrial uncoupling activity of disclosed compounds, as represented by COCR-min.

Setting [1] is: in the presence of oligomycin 2.5 μM, read-out: COCR-min: minimal concentration increasing OCR in the presence of oligomycin.

Structures are written as SMILES. Like-named read-outs stand apart in the source and are kept apart here. Where only a bound is given, the exact number is not on record here.

Turning to `CO/N=C/c1cc(Cl)cc(C(=O)Nc2nc3ccc(C(F)(F)F)cc3s2)c1O` [Compound 39, (E)-5-chloro-2-hydroxy-3-((methoxyimino)methyl)-N-(6-(trifluoromethyl)benzo[d]thiazol-2-yl)benzamide], the minimal effective concentration under setting [1] is > 10 µM.

For the molecule `COCCOCc1cc(Cl)cc(C(=O)Nc2nc3ccc(C(F)F)cc3s2)c1O` [Compound 42, 5-chloro-N-(6-(difluoromethyl)benzo[d]thiazol-2-yl)-2-hydroxy-3-((2-methoxyethoxy)methyl)benzamide], under setting [1], the minimal effective concentration lay within 5 to 10 µM.

As for `COCCOCc1cc(Cl)cc(C(=O)Nc2ccc(C(F)(F)F)cn2)c1O` [Compound 45, 5-chloro-2-hydroxy-3-((2-methoxyethoxy)methyl)-N-(5-(trifluoromethyl)pyridin-2-yl)benzamide], the minimal effective concentration under setting [1] is 5 to 10 µM.

Take `COCCOCc1cc(I)cc(C(=O)Nc2nc3ccc(C(F)(F)F)cc3s2)c1O` [Compound 46, 2-hydroxy-5-iodo-3-((2-methoxyethoxy)methyl)-N-(6-(trifluoromethyl)benzo[d]thiazol-2-yl)benzamide]: under setting [1], the minimal effective concentration was < 5 µM.

For `COCCOCc1cc(Cl)cc(C(=O)Nc2ccc(C(F)(F)F)nc2Cl)c1O` [Compound 47, 5-chloro-N-(2-chloro-6-(trifluoromethyl)pyridin-3-yl)-2-hydroxy-3-((2-methoxyethoxy)methyl)benzamide], under setting [1], the minimal effective concentration was < 5 µM.

With `O=C(Nc1nc2ccc(C(F)(F)F)cc2s1)c1cc(Cl)cc(CO)c1O` [Compound 49 in U.S. Pat. No. 10,227,315, reference compound], the minimal effective concentration (minimal concentration leading to OCR increase, read-out: Activity (Cmin-OCR)) was found to be 25 µM. The mitochondrial uncoupling activity result (in words, compared to similar compounds of the present invention) is “low”.

As to `O=C(Nc1ncc(C(F)(F)F)s1)c1cc(Cl)cc(CN2CCOCC2)c1O` [Compound 51, 5-chloro-2-hydroxy-3-(morpholinomethyl)-N-(5-(trifluoromethyl)thiazol-2-yl)benzamide], the minimal effective concentration under setting [1] is < 5 µM.

On to `O=C(Nc1ccc(C(F)(F)F)nc1)c1cc(Cl)cc(CN2CCOCC2)c1O` [Compound 53, 5-chloro-2-hydroxy-3-(morpholinomethyl)-N-(6-(trifluoromethyl)pyridin-3-yl)benzamide], for which the minimal effective concentration under setting [1] is < 5 µM.

As to `N#CC1CCN(Cc2cc(Cl)cc(C(=O)Nc3ccc(C(F)(F)F)nc3)c2O)C1` (centres unmarked) [Compound 55, 5-chloro-3-((3-cyanopyrrolidin-1-yl)methyl)-2-hydroxy-N-(6-(trifluoromethyl)pyridin-3-yl)benzamide], under setting [1], the minimal effective concentration was < 5 µM.

`O=C(Nc1nc2ccc(C(F)(F)F)cc2s1)c1cc(Cl)cc(CN2CCCC2C(F)(F)F)c1O` (centres unmarked) [Compound 56, 5-chloro-2-hydroxy-N-(6-(trifluoromethyl)benzo[d]thiazol-2-yl)-3-((2-(trifluoromethyl)pyrrolidin-1-yl)methyl)benzamide]: under setting [1], the minimal effective concentration is < 5 µM.

For `COc1cc(C(F)(F)F)cc2sc(NC(=O)c3cc(Cl)cc(C)c3O)nc12` [Compound 67, 5-chloro-2-hydroxy-N-(4-methoxy-6-(trifluoromethyl)benzo[d]thiazol-2-yl)-3-methylbenzamide], the minimal effective concentration under setting [1] is < 5 µM.

As to `COCCOCc1cc(C(F)(F)F)cc2sc(NC(=O)c3cc(Cl)cc(CN(CCOC)CCOC)c3O)nc12` [Compound 70, 3-((bis(2-methoxyethyl)amino)methyl)-5-chloro-2-hydroxy-N-(4-((2-methoxyethoxy)methyl)-6-(trifluoromethyl)benzo[d]thiazol-2-yl)benzamide], the minimal effective concentration under setting [1] is < 5 µM.

As to `Cc1cc(Cl)cc(C(=O)Nc2nc3c(COCCN4CCN(C)CC4)cc(C(F)(F)F)cc3s2)c1O` [Compound 75, 5-chloro-2-hydroxy-3-methyl-N-(4-((2-(4-methylpiperazin-1-yl)ethoxy)methyl)-6-(trifluoromethyl)benzo[d]thiazol-2-yl)benzamide], the minimal effective concentration under setting [1] was < 5 µM.

Consider `C[C@@H]1CN(Cc2cc(Cl)cc(C(=O)Nc3nc4c(COCCN5CCN(C)CC5)cc(C(F)(F)F)cc4s3)c2O)C[C@H](C)O1` [Compound 76, 5-chloro-3-((cis-2,6-dimethylmorpholino)methyl)-2-hydroxy-N-(4-((2-(4-methylpiperazin-1-yl)ethoxy)methyl)-6-(trifluoromethyl)benzo[d]thiazol-2-yl)benzamide], for which the minimal effective concentration under setting [1] was < 5 µM.

Turning to `Cc1cc(Cl)cc(C(=O)Nc2nc3c(COCc4ccc(Cl)cc4)cc(C(F)(F)F)cc3s2)c1O` [Compound 82, 5-chloro-N-(4-(((4-chlorobenzyl)oxy)methyl)-6-(trifluoromethyl)benzo[d]thiazol-2-yl)-2-hydroxy-3-methylbenzamide], the minimal effective concentration under setting [1] is < 5 µM.

Turning to `Cc1cc(Cl)cc(C(=O)Nc2nc3c(COCc4ccccc4)cc(C(F)(F)F)cc3s2)c1O` [Compound 84, N-(4-((benzyloxy)methyl)-6-(trifluoromethyl)benzo[d]thiazol-2-yl)-5-chloro-2-hydroxy-3-methylbenzamide], the minimal effective concentration under setting [1] is < 5 µM.

Turning to `Cc1cc(Cl)cc(C(=O)Nc2nc3c(COCCO)cc(C(F)(F)F)cc3s2)c1O` [Compound 88, 5-chloro-2-hydroxy-N-(4-((2-hydroxyethoxy)methyl)-6-(trifluoromethyl)benzo[d]thiazol-2-yl)-3-methylbenzamide], the minimal effective concentration under setting [1] was 5 to 10 µM.

As for `COc1ccc(COCc2cc(C(F)(F)F)cc3sc(NC(=O)c4cc(Cl)cc(C)c4O)nc23)cc1` [Compound 89, 5-chloro-2-hydroxy-N-(4-(((4-methoxybenzyl)oxy)methyl)-6-(trifluoromethyl)benzo[d]thiazol-2-yl)-3-methylbenzamide], the minimal effective concentration under setting [1] is < 5 µM.

With `Cc1cc(Cl)cc(C(=O)Nc2nc3c(COCCNS(C)(=O)=O)cc(C(F)(F)F)cc3s2)c1O` [Compound 91, 5-chloro-2-hydroxy-3-methyl-N-(4-((2-(methylsulfonamido)ethoxy)methyl)-6-(trifluoromethyl)benzo[d]thiazol-2-yl)benzamide], under setting [1], the minimal effective concentration was < 5 µM.

Regarding `C[C@@H]1CN(Cc2cc(Cl)cc(C(=O)Nc3nc4c(COCCNS(C)(=O)=O)cc(C(F)(F)F)cc4s3)c2O)C[C@H](C)O1` [Compound 92, 5-chloro-3-((cis-2,6-dimethylmorpholino)methyl)-2-hydroxy-N-(4-((2-(methylsulfonamido)ethoxy)methyl)-6-(trifluoromethyl)benzo[d]thiazol-2-yl)benzamide], the minimal effective concentration under setting [1] was < 5 µM.

As to `COCCN(CCOC)Cc1cc(Cl)cc(C(=O)Nc2nc3c(COCCNS(C)(=O)=O)cc(C(F)(F)F)cc3s2)c1O` [Compound 93, 3-((bis(2-methoxyethyl)amino)methyl)-5-chloro-2-hydroxy-N-(4-((2-(methylsulfonamido)ethoxy)methyl)-6-(trifluoromethyl)benzo[d]thiazol-2-yl)benzamide], the minimal effective concentration under setting [1] was < 5 µM.

For `O=C(Nc1nc2ccc(C(F)(F)F)cc2s1)c1cc(Cl)cc(CN2CCCC(F)C2)c1O` (centres unmarked) [Example 58, 5-chloro-3-((3-fluoropiperidin-1-yl)methyl)-2-hydroxy-N-(6-(trifluoromethyl)benzo[d]thiazol-2-yl)benzamide], the minimal effective concentration under setting [1] is < 5 µM.
